Results: patent publication US5254546A, “Fused aryl substituted imidazole angiotensin II receptor inhibitors” (E. I. Du Pont de Nemours and Company, priority 1992, dated 1993)

Columns and labels:
Angiotensin II Receptor = experiment: AII receptor ligand-receptor binding assay (rat adrenal cortical microsomes, displacement of 3H-AII or 125I-AII); conditions: Table 7, 1 hour, room temperature
Description: The hormone angiotensin II (AII) produces numerous biological responses (e.g. vasoconstriction) through stimulation of its receptors on cell membranes. For the purpose of identifying compounds such as AII antagonists which are capable of interacting with the AII receptor, a ligand-receptor binding assay was utilized for the initial screen. The assay was carried out according to the method described by [Glossmann et al., J. Biol. Chem., 249, 825 (1974)], but with some modifications. The reaction mixture contained rat adrenal cortical microsomes (source of AII receptor) in Tris buffer and 2 nM of ^3 H-AII or 0.05 nM ^125 I-AII with or without potential AII antagonist. This mixture was incubated for 1 hour at room temperature and the reaction was subsequently terminated by rapid filtration and rinsing through glass micro-fibre filter. Receptor-bound ^3 H-AII or ^125 I-AII trapped in filter was quantitated by scintillation counting. The inhibitory concentration (IC50) of potential AII antagonist which gives 50% displacement of the total specifically bound ^3 H-AII or ^125 I-AII is a measure of the affinity of such compound for the AII receptor.

[1] = test system: awake rats made hypertensive by ligation of the left renal artery; experiment: Antihypertensive effects in renal hypertensive rats (left renal artery ligation); format: in vivo, rat; conditions: for Antihypertensive Effects in Renal Hypertensive Rats, Intravenous Activity: 3 mg/kg; for Antihypertensive Effects in Renal Hypertensive Rats, Oral Activity: 30 mg/kg
Description: Blood pressure levels after treatment are compared to pretreatment levels to determine the antihypertensive effects of the compounds which were tested.

[2] = test system: effects of AII on the blood pressure of pithed rats; conditions: cited from earlier work
mammals and man = conditions: cited from earlier work
[3] = test system: renal vasoconstrictor effect of indomethacin and meclofenamate in dogs; conditions: cited from earlier work

IC50 (Angiotensin II Receptor) [nM]	Structure (SMILES)	Antihypertensive Effects in Renal Hypertensive Rats, Intravenous Activity [1]	Antihypertensive Effects in Renal Hypertensive Rats, Oral Activity [1]	also measured
21	CCCc1nc(-c2cccc3ccccc23)c(C=O)n1Cc1ccc(-c2ccccc2-c2nnn[nH]2)cc1 [Example 1, 4-(naphth-1-yl)-2-n-propyl-1-[(2'-(1H-tetrazol-5-yl)biphenyl-4-yl)methyl]imidazole-5-carboxaldehyde]	+ (Significant decrease in blood pressure at 3.0 mg/kg or less)	+ (Significant decrease in blood pressure at 30 mg/kg or less)	–
29	CCCc1nc(-c2cc3ccccc3s2)c(C=O)n1Cc1ccc(-c2ccccc2-c2nn[nH]n2)cc1 [Example 7]	NA (Not active at 3 mg/kg or 30 mg/kg dosage tested)	–	–
170	CCCc1nc(-c2ccc(F)c3ccccc23)c(C=O)n1Cc1ccc(-c2ccccc2-c2nn[nH]n2)cc1 [Example 8]	NA (Not active at 3 mg/kg or 30 mg/kg dosage tested)	–	–
490	CCCc1nc(-c2ccc3c4c(cccc24)CC3)c(C=O)n1Cc1ccc(-c2ccccc2-c2nn[nH]n2)cc1 [Example 9]	NA (Not active at 3 mg/kg or 30 mg/kg dosage tested)	–	–
99	CCCc1nc(-c2ccc3ccccc3c2)c(C=O)n1Cc1ccc(-c2ccccc2-c2nn[nH]n2)cc1 [Example 10]	NA (Not active at 3 mg/kg or 30 mg/kg dosage tested)	NA (Not active at 3 mg/kg or 30 mg/kg dosage tested)	–
160	CCCc1nc(-c2ccc3cc(OC)ccc3c2)c(C=O)n1Cc1ccc(-c2ccccc2-c2nn[nH]n2)cc1 [Example 11]	NA (Not active at 3 mg/kg or 30 mg/kg dosage tested)	–	–
110	CCCc1nc(-c2cc3ccccc3o2)c(C=O)n1Cc1ccc(-c2ccccc2-c2nn[nH]n2)cc1 [Example 41]	+ (Significant decrease in blood pressure at 3.0 mg/kg or less)	+ (Significant decrease in blood pressure at 30 mg/kg or less)	–
13	CCCc1nc(/C=C\c2cccc3ccccc23)c(C=O)n1Cc1ccc(-c2ccccc2-c2nn[nH]n2)cc1 [Example 95]	+ (Significant decrease in blood pressure at 3.0 mg/kg or less)	+ (Significant decrease in blood pressure at 30 mg/kg or less)	–
560	CCCc1nc(/C=C/c2cccc3ccccc23)c(C=O)n1Cc1ccc(-c2ccccc2-c2nn[nH]n2)cc1 [Example 96]	+ (Significant decrease in blood pressure at 3.0 mg/kg or less)	–	–
540	CCCc1nc(/C=C\c2ccc3ccccc3c2)c(C=O)n1Cc1ccc(-c2ccccc2-c2nn[nH]n2)cc1 [Example 97]	+ (Significant decrease in blood pressure at 3.0 mg/kg or less)	–	–
–	CNCC(=O)N[C@@H](CCCN=C(N)N)C(=O)N[C@H](C(=O)N[C@@H](Cc1ccc(O)cc1)C(=O)N[C@H](C(=O)N[C@@H](Cc1cnc[nH]1)C(=O)N1CCC[C@H]1C(=O)N[C@@H](C)C(=O)O)C(C)C)C(C)C [Saralasin, [Sar^1, Ala^8] AII]	–	–	antagonism of AII effects on blood pressure [2]: one of the most potent competitive antagonists of the actions of AII; oral effectiveness (mammals and man; oral doses): oral doses being ineffective; duration of pharmacological effects (mammals and man; parenteral administration): relatively short-lasting; lowering of arterial pressure (mammals and man; when the elevated pressure is dependent on circulating AII): lower arterial pressure in mammals and man; pressor effects (mammals and man; when the pressure is not sustained by AII): generally elicits pressor effects when the pressure is not sustained by AII; effect on renal vasoconstriction by NSAID [3]: inhibit the renal vasoconstrictor effect of indomethacin and meclofenamate in dogs
–	C[C@H](CS)C(=O)N1CCC[C@H]1C(=O)O [captopril]	–	–	effect on renal vasoconstriction by NSAID [3]: reverse the renal vasoconstrictor effect of indomethacin in dogs with non-hypotensive hemorrhage

Structure (SMILES)	IC50 (Angiotensin II Receptor) [nM]	Antihypertensive Effects in Renal Hypertensive Rats, Intravenous Activity [1]	Antihypertensive Effects in Renal Hypertensive Rats, Oral Activity [1]	also measured
CCCc1nc(-c2cc3ccccc3c3ccccc23)c(C=O)n1Cc1ccc(-c2ccccc2-c2nn[nH]n2)cc1 [Example 24]	170	+ (Significant decrease in blood pressure at 3.0 mg/kg or less)	NA (Not active at 3 mg/kg or 30 mg/kg dosage tested)	–
